Data as given in PubChem BioAssay (NCI).
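Method: 48-hour compound exposure of cells in 96-well plates, five concentrations, linear interpolation of endpoints. TGI marks complete inhibition of growth.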

Experiments:
Assay in all cases: NCI-60 cell line screen, 48 h
UO-31 renal = system: UO-31 renal
MALME-3M melanoma = system: MALME-3M melanoma
HOP-92 NSCLC = system: HOP-92 NSCLC
A549 NSCLC = system: A549 NSCLC
K-562 leukemia = system: K-562 leukemia
SN12C renal = system: SN12C renal
KM12 colon = system: KM12 colon
SF-268 CNS = system: SF-268 CNS
SR leukemia = system: SR leukemia
MDA-MB-435 = system: MDA-MB-435
BT-549 breast = system: BT-549 breast
MDA-MB-231 breast = system: MDA-MB-231 breast
SNB-75 CNS = system: SNB-75 CNS
OVCAR-3 ovarian = system: OVCAR-3 ovarian
OVCAR-5 ovarian = system: OVCAR-5 ovarian
T-47D breast = system: T-47D breast
SW-620 colon = system: SW-620 colon
UACC-257 melanoma = system: UACC-257 melanoma
786-0 renal = system: 786-0 renal
TK-10 renal = system: TK-10 renal
MCF7 breast = system: MCF7 breast
SK-MEL-2 melanoma = system: SK-MEL-2 melanoma
SK-MEL-5 melanoma = system: SK-MEL-5 melanoma
MDA-N = system: MDA-N
SK-MEL-28 melanoma = system: SK-MEL-28 melanoma
PC-3 prostate = system: PC-3 prostate
RXF 393 renal = system: RXF 393 renal
DU-145 prostate = system: DU-145 prostate
SK-OV-3 ovarian = system: SK-OV-3 ovarian
U251 CNS = system: U251 CNS
CCRF-CEM leukemia = system: CCRF-CEM leukemia
NCI-H226 lung = system: NCI-H226 lung
NCI-H522 lung = system: NCI-H522 lung
RPMI-8226 leukemia = system: RPMI-8226 leukemia
SF-295 CNS = system: SF-295 CNS
NCI/ADR-RES ovarian = system: NCI/ADR-RES ovarian
HCT-116 colon = system: HCT-116 colon
OVCAR-4 ovarian = system: OVCAR-4 ovarian
NCI-H23 lung = system: NCI-H23 lung
IGROV1 ovarian = system: IGROV1 ovarian
MOLT-4 leukemia = system: MOLT-4 leukemia
SF-539 CNS = system: SF-539 CNS
OVCAR-8 ovarian = system: OVCAR-8 ovarian
CAKI-1 renal = system: CAKI-1 renal
HL-60(TB) leukemia = system: HL-60(TB) leukemia
HOP-62 NSCLC = system: HOP-62 NSCLC
HS 578T breast = system: HS 578T breast
ACHN renal = system: ACHN renal
LOX IMVI melanoma = system: LOX IMVI melanoma
HT29 colon = system: HT29 colon
EKVX NSCLC = system: EKVX NSCLC
HCT-15 colon = system: HCT-15 colon
M14 melanoma = system: M14 melanoma
COLO 205 colon = system: COLO 205 colon
SNB-19 CNS = system: SNB-19 CNS
HCC-2998 colon = system: HCC-2998 colon
NCI-H460 lung = system: NCI-H460 lung
UACC-62 melanoma = system: UACC-62 melanoma
A498 renal = system: A498 renal

`O=C(c1ccccc1)c1ccc2nc(-c3c(Cl)c(Cl)c(Cl)c(Cl)c3C(=O)N/N=C\C=C\c3ccccc3)[nH]c2c1` showed a TGI (UO-31 renal) greater than 100 µM, a TGI (MALME-3M melanoma) greater than 100 µM and a TGI (HOP-92 NSCLC) greater than 100 µM. For the same molecule, the TGI (A549 NSCLC) was greater than 100 µM, the TGI (K-562 leukemia) was greater than 100 µM and the TGI (SN12C renal) was greater than 100 µM. The TGI (KM12 colon) was greater than 100 µM, the TGI (SF-268 CNS) was greater than 100 µM and the TGI (SR leukemia) was 97.4 µM. For the same molecule, the TGI (MDA-MB-435) was greater than 100 µM, the TGI (BT-549 breast) was greater than 100 µM and the TGI (MDA-MB-231 breast) was greater than 100 µM. The TGI (SNB-75 CNS) was greater than 100 µM, the TGI (OVCAR-3 ovarian) was 84.8 µM and the TGI (OVCAR-5 ovarian) was greater than 100 µM. It also gave a TGI (T-47D breast) greater than 100 µM, a TGI (SW-620 colon) greater than 100 µM and a TGI (UACC-257 melanoma) greater than 100 µM. For the same molecule, the TGI (786-0 renal) was greater than 100 µM, the TGI (TK-10 renal) was greater than 100 µM and the TGI (MCF7 breast) was greater than 100 µM. It also gave a TGI (SK-MEL-2 melanoma) greater than 100 µM, a TGI (SK-MEL-5 melanoma) greater than 100 µM and a TGI (MDA-N) greater than 100 µM. It also gave a TGI (SK-MEL-28 melanoma) greater than 100 µM, a TGI (PC-3 prostate) greater than 100 µM and a TGI (RXF 393 renal) of 95.3 µM. The TGI (DU-145 prostate) was greater than 100 µM, the TGI (SK-OV-3 ovarian) was greater than 100 µM and the TGI (U251 CNS) was greater than 100 µM. For the same molecule, the TGI (CCRF-CEM leukemia) was 86.8 µM, the TGI (NCI-H226 lung) was greater than 100 µM and the TGI (NCI-H522 lung) was greater than 100 µM. The TGI (RPMI-8226 leukemia) was 64 µM, the TGI (SF-295 CNS) was greater than 100 µM and the TGI (NCI/ADR-RES ovarian) was greater than 100 µM. For the same molecule, the TGI (HCT-116 colon) was greater than 100 µM, the TGI (OVCAR-4 ovarian) was greater than 100 µM and the TGI (NCI-H23 lung) was greater than 100 µM. For the same molecule, the TGI (IGROV1 ovarian) was greater than 100 µM, the TGI (MOLT-4 leukemia) was greater than 100 µM and the TGI (SF-539 CNS) was greater than 100 µM. The TGI (OVCAR-8 ovarian) was greater than 100 µM, the TGI (CAKI-1 renal) was greater than 100 µM and the TGI (HL-60(TB) leukemia) was greater than 100 µM. The TGI (HOP-62 NSCLC) was greater than 100 µM, the TGI (HS 578T breast) was greater than 100 µM and the TGI (ACHN renal) was greater than 100 µM. It also gave a TGI (LOX IMVI melanoma) greater than 100 µM, a TGI (HT29 colon) greater than 100 µM and a TGI (EKVX NSCLC) greater than 100 µM. The TGI (HCT-15 colon) was greater than 100 µM, the TGI (M14 melanoma) was greater than 100 µM and the TGI (COLO 205 colon) was greater than 100 µM. The TGI (SNB-19 CNS) was greater than 100 µM.

For `COC(=O)/C(=C(\C)NC(C)=O)c1c(C(=O)OC)[nH]c2ccccc12`, the TGI (HCC-2998 colon) was greater than 100 µM, the TGI (UO-31 renal) was greater than 100 µM and the TGI (MALME-3M melanoma) was greater than 100 µM. The TGI (NCI-H460 lung) was greater than 100 µM, the TGI (HOP-92 NSCLC) was greater than 100 µM and the TGI (A549 NSCLC) was greater than 100 µM. It also gave a TGI (K-562 leukemia) greater than 100 µM, a TGI (SN12C renal) greater than 100 µM and a TGI (KM12 colon) greater than 100 µM. It also gave a TGI (SF-268 CNS) greater than 100 µM, a TGI (SR leukemia) greater than 100 µM and a TGI (MDA-MB-435) greater than 100 µM. It also gave a TGI (BT-549 breast) greater than 100 µM, a TGI (MDA-MB-231 breast) greater than 100 µM and a TGI (OVCAR-3 ovarian) greater than 100 µM. For the same molecule, the TGI (OVCAR-5 ovarian) was greater than 100 µM, the TGI (T-47D breast) was greater than 100 µM and the TGI (SW-620 colon) was greater than 100 µM. The TGI (UACC-257 melanoma) was greater than 100 µM, the TGI (786-0 renal) was greater than 100 µM and the TGI (TK-10 renal) was greater than 100 µM. It also gave a TGI (MCF7 breast) greater than 100 µM, a TGI (SK-MEL-2 melanoma) greater than 100 µM and a TGI (SK-MEL-5 melanoma) greater than 100 µM. It also gave a TGI (MDA-N) greater than 100 µM, a TGI (SK-MEL-28 melanoma) greater than 100 µM and a TGI (PC-3 prostate) greater than 100 µM. For the same molecule, the TGI (RXF 393 renal) was greater than 100 µM, the TGI (DU-145 prostate) was greater than 100 µM and the TGI (SK-OV-3 ovarian) was greater than 100 µM. It also gave a TGI (U251 CNS) greater than 100 µM, a TGI (CCRF-CEM leukemia) greater than 100 µM and a TGI (NCI-H226 lung) greater than 100 µM. For the same molecule, the TGI (NCI-H522 lung) was greater than 100 µM, the TGI (RPMI-8226 leukemia) was greater than 100 µM and the TGI (SF-295 CNS) was greater than 100 µM. The TGI (NCI/ADR-RES ovarian) was greater than 100 µM, the TGI (HCT-116 colon) was greater than 100 µM and the TGI (OVCAR-4 ovarian) was greater than 100 µM. For the same molecule, the TGI (UACC-62 melanoma) was greater than 100 µM, the TGI (NCI-H23 lung) was greater than 100 µM and the TGI (IGROV1 ovarian) was greater than 100 µM. For the same molecule, the TGI (MOLT-4 leukemia) was greater than 100 µM, the TGI (SF-539 CNS) was greater than 100 µM and the TGI (OVCAR-8 ovarian) was greater than 100 µM. For the same molecule, the TGI (CAKI-1 renal) was greater than 100 µM, the TGI (HL-60(TB) leukemia) was greater than 100 µM and the TGI (HOP-62 NSCLC) was greater than 100 µM. It also gave a TGI (HS 578T breast) greater than 100 µM, a TGI (ACHN renal) greater than 100 µM and a TGI (LOX IMVI melanoma) greater than 100 µM. It also gave a TGI (A498 renal) greater than 100 µM, a TGI (HT29 colon) greater than 100 µM and a TGI (EKVX NSCLC) greater than 100 µM. For the same molecule, the TGI (HCT-15 colon) was greater than 100 µM, the TGI (M14 melanoma) was greater than 100 µM and the TGI (COLO 205 colon) was greater than 100 µM. The TGI (SNB-19 CNS) was greater than 100 µM.
